# In US11565231B2, “Substrates, peptide arrays, and methods” (Vibrant Holdings, LLC, priority 2012, dated 2023):
# What was measured:
# [1] = test system: IgA from a celiac positive sample; test: Antibody assay (B peptides) on peptide array, IgA binding
# Protocol: A peptide array comprising peptide fragment sequences synthesized on the surface of the array was generated according to the methods described above. The peptide array was developed to test all 12 mer sequences from alpha-gliadin, including sequences where glutamine was substituted with glutamate, as described above (see, e.g., FIGS. 15 and 16). A reduction reaction was performed to remove the disulfide bonds that exist between cysteine residues. This reaction was not performed when epitopes involving cyclic peptides based on cysteine bonds are needed. Dithiothreitol was prepared in a concentration of 0.1 g per 20 mL PBS-Tween (PBST). The peptide microarray (herein referred to as the peptide chip) was immersed in the DTT solution and placed in a nitrogen atmosphere at a pressure of 40 Pa at room temperature for 1 hour. […]
# The peptide array was then analyzed to detect antibody/peptide complexes. […]
# A set of 12-mer sequences generating weakly or strongly positive binding signals to celiac positive samples was compiled (see, e.g., Table A in Appendix A of U.S. Provisional Application No. 61/761,347, incorporated herein by reference). Using a computer programmed to undertake sequence analysis, subsequences present within this set of 12-mer sequences were determined using a series of sliding windows having a minimum length of 3 amino acids and maximum length of 11 amino acids. […]
# [2] = test system: antibodies of clinically proven celiac positive samples; test: Immunological binding assay on Periphilin-1 overlapping peptide array; details: Periphilin-1 spanned as overlapping 12 amino acid peptides, signals significant when exceeding background (400) by a factor of 50
# Protocol: Immunological binding assays were performed on an array produced using the materials and methods described in the Examples above. The samples that were used to run the assays included clinically proven celiac positive samples.
# The immunoactive regions of Periphilin-1 were determined. With reference to FIG. 17, the microarray substrate including the Periphilin-1 sequence split into 12 amino acid length peptide sequences is shown. […] Determination of background noise, background subtraction, and identification of signals that exceed background noise routine and well within the level of ordinary skill in the microarray binding arts. In this example, the mean background signal intensity was estimated to be 400 and signals were determined to be significant when they exceeded background by a factor of 50.
"immune dominant subsequence (epitope) for antibody response amongst celiac positive subjects ([1]; alpha-gliadin 12-mer array incl. deamidated sequences, celiac positive samples)","sample binding hits ([1]; celiac-positive serum sample, IgA binding, FIG. 18, Row QPE, Column QPF) [%]",subsequence identified for antibody binding [2],Substance
key immune dominant subsequence,91.78,,QPEQPF [QPE-QPF]
,,key subsequence for antibody binding,PQQPEQII
